Source: the kinase profiling compilation of Christmann-Franck et al. (2016)

Experiments:
Test in all cases: radiometric filter-binding kinase assay, Kinase HotSpot
Details in all cases: compound 0.5 µM; ATP 10 µM
CDK9 CCNK (human) = CDK9 CCNK (human) (UniProt O75909+P50750)
PAK7 (human) = PAK7 (human) (UniProt Q9P286)
ERBB4 (human) = ERBB4 (human) (UniProt Q15303)
MAPK10 (human) = MAPK10 (human) (UniProt P53779)
PDGFRA (human) = PDGFRA (human) (UniProt P16234)
KIT (human) = KIT (human) (UniProt P10721)
SYK (human) = SYK (human) (UniProt P43405)
PDPK1 (human) = PDPK1 (human) (UniProt O15530)
ROS1 (human) = ROS1 (human) (UniProt P08922)
DYRK1B (human) = DYRK1B (human) (UniProt Q9Y463)
CDK1 CCNB1 (human) = CDK1 CCNB1 (human) (UniProt P06493+P14635)
WEE1 (human) = WEE1 (human) (UniProt P30291)
RAF1 (human) = RAF1 (human) (UniProt P04049)
STK10 (human) = STK10 (human) (UniProt O94804)
CSK (human) = CSK (human) (UniProt P41240)
CAMK2B (human) = CAMK2B (human) (UniProt Q13554)
AURKC (human) = AURKC (human) (UniProt Q9UQB9)
CSNK2A1 (human) = CSNK2A1 (human) (UniProt P68400)
BRSK2 (human) = BRSK2 (human) (UniProt Q8IWQ3)
TEK (human) = TEK (human) (UniProt Q02763)
ZAP70 (human) = ZAP70 (human) (UniProt P43403)
PRKCZ (human) = PRKCZ (human) (UniProt Q05513)
MAP3K2 (human) = MAP3K2 (human) (UniProt Q9Y2U5)
PRKCB1 (human) = PRKCB1 (human) (UniProt P05771)
STK4 (human) = STK4 (human) (UniProt Q13043)
MAP3K7 TAB1 (human) = MAP3K7 TAB1 (human) (UniProt O43318+Q15750)
PRKG2 (human) = PRKG2 (human) (UniProt Q13237)
MAP3K3 (human) = MAP3K3 (human) (UniProt Q99759)
MAP3K14 (human) = MAP3K14 (human) (UniProt Q99558)
MAP3K9 (human) = MAP3K9 (human) (UniProt P80192)
MAP3K11 (human) = MAP3K11 (human) (UniProt Q16584)
PRKD3 (human) = PRKD3 (human) (UniProt O94806)
IKBKE (human) = IKBKE (human) (UniProt Q14164)
EPHA2 (human) = EPHA2 (human) (UniProt P29317)
AURKB (human) = AURKB (human) (UniProt Q96GD4)
STK16 (human) = STK16 (human) (UniProt O75716)
AKT2 (human) = AKT2 (human) (UniProt P31751)
CDK6 CCND1 (human) = CDK6 CCND1 (human) (UniProt Q00534+P24385)
CAMK1G (human) = CAMK1G (human) (UniProt Q96NX5)
CAMK1 (human) = CAMK1 (human) (UniProt Q14012)
SRMS (human) = SRMS (human) (UniProt Q9H3Y6)
CAMK2D (human) = CAMK2D (human) (UniProt Q13557)
CAMK2D (human), sequence (Q13557 whole entry, looked up): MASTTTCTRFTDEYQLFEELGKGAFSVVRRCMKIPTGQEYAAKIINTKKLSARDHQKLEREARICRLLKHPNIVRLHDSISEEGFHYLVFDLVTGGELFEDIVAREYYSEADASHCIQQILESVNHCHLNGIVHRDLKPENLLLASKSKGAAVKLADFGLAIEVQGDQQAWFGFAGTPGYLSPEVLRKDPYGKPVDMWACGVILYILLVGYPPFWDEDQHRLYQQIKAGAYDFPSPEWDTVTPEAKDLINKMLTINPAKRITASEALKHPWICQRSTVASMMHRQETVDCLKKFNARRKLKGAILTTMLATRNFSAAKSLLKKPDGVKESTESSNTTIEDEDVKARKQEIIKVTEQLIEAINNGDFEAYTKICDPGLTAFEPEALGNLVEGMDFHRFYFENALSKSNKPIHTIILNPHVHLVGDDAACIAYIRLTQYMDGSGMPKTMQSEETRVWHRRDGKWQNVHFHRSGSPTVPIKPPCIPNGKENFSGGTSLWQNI

STK4 (human), sequence (Q13043 whole entry, looked up): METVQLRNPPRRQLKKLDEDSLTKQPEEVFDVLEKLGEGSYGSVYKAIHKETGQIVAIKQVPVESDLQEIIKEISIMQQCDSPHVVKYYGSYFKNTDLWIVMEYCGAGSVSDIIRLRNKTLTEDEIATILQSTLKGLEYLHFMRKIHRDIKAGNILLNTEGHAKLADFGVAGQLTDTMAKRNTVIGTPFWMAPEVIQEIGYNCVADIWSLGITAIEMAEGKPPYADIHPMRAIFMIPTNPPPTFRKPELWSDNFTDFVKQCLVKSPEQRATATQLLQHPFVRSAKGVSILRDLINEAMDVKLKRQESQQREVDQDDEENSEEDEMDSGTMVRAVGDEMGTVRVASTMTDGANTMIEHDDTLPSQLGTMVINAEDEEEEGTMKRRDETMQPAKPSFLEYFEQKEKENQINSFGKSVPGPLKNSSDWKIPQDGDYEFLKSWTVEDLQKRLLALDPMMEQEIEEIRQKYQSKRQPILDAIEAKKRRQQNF
MAP3K7 TAB1 (human), sequence (O43318 whole entry, looked up): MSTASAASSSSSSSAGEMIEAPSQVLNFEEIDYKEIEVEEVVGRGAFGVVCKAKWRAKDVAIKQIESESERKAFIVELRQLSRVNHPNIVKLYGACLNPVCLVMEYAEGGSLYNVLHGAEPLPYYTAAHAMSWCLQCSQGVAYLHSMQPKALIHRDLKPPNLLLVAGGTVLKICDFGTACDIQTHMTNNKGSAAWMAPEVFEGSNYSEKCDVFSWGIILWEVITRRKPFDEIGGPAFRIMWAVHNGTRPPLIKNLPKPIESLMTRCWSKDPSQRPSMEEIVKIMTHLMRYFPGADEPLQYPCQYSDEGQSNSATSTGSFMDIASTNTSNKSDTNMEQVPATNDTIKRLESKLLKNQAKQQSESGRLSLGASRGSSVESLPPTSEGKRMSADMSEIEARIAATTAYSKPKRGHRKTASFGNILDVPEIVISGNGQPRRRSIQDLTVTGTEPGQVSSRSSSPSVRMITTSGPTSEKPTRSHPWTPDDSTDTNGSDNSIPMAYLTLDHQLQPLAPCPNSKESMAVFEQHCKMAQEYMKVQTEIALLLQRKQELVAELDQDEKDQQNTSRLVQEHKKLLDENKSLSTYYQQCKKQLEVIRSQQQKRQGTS
MAP3K7 TAB1 (human), sequence (Q15750 whole entry, looked up): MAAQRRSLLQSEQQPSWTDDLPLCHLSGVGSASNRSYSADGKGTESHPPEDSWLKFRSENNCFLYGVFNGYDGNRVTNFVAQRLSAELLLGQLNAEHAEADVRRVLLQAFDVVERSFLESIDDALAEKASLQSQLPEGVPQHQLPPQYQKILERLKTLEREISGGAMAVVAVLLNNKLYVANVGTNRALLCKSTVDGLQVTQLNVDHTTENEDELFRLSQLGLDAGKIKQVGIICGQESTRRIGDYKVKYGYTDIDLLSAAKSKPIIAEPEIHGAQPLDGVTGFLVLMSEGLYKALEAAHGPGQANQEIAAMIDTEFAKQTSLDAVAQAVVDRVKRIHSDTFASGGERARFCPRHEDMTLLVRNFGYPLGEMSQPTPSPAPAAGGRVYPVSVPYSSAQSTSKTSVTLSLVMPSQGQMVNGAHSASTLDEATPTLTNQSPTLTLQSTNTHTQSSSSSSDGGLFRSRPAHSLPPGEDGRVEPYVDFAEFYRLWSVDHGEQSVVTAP
SRMS (human), sequence (Q9H3Y6 whole entry, looked up): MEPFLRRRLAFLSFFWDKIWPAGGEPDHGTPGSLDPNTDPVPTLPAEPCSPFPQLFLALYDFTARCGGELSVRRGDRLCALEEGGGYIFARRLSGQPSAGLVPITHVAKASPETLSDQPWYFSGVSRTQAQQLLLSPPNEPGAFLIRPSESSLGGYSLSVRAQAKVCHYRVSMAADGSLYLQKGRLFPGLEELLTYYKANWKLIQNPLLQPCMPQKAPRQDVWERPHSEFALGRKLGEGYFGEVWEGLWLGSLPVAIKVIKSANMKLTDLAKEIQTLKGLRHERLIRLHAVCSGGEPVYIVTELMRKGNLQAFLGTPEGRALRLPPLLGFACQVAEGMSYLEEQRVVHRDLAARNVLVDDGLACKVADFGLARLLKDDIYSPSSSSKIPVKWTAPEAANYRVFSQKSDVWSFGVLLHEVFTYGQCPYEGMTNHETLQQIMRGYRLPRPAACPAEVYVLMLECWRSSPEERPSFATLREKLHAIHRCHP
DYRK1B (human), sequence (Q9Y463 whole entry, looked up): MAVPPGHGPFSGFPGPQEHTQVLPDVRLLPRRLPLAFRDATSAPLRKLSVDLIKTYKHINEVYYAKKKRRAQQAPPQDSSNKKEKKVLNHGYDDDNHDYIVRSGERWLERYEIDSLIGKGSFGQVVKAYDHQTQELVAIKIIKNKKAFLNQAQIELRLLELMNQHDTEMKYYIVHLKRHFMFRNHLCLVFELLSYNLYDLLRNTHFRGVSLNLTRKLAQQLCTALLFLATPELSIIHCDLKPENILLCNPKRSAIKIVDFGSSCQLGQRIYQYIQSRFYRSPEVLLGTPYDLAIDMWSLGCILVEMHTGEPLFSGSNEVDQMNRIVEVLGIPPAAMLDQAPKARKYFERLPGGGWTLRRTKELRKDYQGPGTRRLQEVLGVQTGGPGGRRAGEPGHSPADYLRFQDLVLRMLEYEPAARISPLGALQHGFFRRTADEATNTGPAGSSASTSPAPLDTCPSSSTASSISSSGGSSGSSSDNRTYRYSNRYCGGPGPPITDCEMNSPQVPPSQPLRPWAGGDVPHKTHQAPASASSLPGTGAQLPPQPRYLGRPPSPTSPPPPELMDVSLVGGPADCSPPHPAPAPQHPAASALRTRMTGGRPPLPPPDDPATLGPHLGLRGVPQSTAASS
CSNK2A1 (human), sequence (P68400 whole entry, looked up): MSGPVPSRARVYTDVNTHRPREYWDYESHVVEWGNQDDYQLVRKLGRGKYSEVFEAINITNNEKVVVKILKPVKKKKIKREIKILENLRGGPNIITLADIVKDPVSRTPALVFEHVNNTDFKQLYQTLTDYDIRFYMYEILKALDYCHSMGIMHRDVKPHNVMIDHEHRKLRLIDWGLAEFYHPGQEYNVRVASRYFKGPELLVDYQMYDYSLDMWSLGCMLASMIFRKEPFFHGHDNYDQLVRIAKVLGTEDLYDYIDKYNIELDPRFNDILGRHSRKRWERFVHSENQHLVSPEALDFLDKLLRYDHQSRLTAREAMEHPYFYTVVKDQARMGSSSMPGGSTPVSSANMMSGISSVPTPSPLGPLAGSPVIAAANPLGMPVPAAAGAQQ
PAK7 (human), sequence (Q9P286 whole entry, looked up): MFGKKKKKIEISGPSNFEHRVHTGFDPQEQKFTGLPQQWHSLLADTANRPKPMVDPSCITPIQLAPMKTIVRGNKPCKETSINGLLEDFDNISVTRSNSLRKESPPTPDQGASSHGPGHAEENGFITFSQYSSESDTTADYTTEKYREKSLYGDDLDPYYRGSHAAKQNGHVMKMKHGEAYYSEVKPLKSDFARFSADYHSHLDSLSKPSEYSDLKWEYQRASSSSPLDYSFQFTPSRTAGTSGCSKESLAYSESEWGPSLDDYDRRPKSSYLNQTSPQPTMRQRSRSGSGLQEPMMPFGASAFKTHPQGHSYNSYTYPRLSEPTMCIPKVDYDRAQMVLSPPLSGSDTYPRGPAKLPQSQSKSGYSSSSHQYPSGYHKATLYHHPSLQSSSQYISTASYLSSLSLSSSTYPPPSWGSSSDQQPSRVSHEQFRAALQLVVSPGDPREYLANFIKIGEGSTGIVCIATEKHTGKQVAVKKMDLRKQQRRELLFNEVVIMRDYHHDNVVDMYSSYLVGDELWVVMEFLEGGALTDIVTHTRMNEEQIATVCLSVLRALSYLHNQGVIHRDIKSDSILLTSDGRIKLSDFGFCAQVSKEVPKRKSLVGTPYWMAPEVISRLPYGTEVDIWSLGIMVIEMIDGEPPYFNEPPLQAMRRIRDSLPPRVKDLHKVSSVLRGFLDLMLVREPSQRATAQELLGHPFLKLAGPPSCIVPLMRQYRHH
CAMK1 (human), sequence (Q14012 whole entry, looked up): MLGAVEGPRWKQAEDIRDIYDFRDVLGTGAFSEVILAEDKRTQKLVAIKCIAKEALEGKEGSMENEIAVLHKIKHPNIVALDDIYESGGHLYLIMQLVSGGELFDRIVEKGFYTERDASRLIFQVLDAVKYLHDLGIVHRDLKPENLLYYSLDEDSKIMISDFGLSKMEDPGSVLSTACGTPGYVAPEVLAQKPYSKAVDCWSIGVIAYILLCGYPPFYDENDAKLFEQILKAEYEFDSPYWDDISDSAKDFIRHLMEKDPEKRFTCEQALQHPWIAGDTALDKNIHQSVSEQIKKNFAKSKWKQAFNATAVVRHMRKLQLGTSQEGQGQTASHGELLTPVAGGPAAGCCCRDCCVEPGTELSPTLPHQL
STK16 (human), sequence (O75716 whole entry, looked up): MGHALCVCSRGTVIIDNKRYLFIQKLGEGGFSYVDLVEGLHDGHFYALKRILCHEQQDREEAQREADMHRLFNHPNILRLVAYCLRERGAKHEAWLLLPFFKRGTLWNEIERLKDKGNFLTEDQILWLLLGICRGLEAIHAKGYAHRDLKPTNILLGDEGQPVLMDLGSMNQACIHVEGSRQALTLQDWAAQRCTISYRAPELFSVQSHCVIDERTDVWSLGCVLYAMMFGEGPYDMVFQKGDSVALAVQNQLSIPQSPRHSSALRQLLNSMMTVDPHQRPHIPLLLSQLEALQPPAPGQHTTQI

CS(=O)c1ccc(-c2nc(-c3ccc(F)cc3)c(-c3ccncc3)[nH]2)cc1 (stereo unspecified)
residual activity (CDK9 CCNK (human)): 98.6%
residual activity (PAK7 (human)): 104%
residual activity (ERBB4 (human)): 66.8%
residual activity (MAPK10 (human)): 114%
residual activity (PDGFRA (human)): 98.8%
residual activity (KIT (human)): 91.3%
residual activity (SYK (human)): 98%
residual activity (PDPK1 (human)): 96.3%
residual activity (ROS1 (human)): 94.4%
residual activity (DYRK1B (human)): 104%
residual activity (CDK1 CCNB1 (human)): 99.1%
residual activity (WEE1 (human)): 92.1%
residual activity (RAF1 (human)): 41.1%
residual activity (STK10 (human)): 89.1%
residual activity (CSK (human)): 87.7%
residual activity (CAMK2B (human)): 97.6%
residual activity (AURKC (human)): 98.5%
residual activity (CSNK2A1 (human)): 86.2%
residual activity (BRSK2 (human)): 101%
residual activity (TEK (human)): 94.5%
residual activity (ZAP70 (human)): 94.4%
residual activity (PRKCZ (human)): 103%
residual activity (MAP3K2 (human)): 95.3%
residual activity (PRKCB1 (human)): 74%
residual activity (STK4 (human)): 101%
residual activity (MAP3K7 TAB1 (human)): 94%
residual activity (PRKG2 (human)): 92.7%
residual activity (MAP3K3 (human)): 102%
residual activity (MAP3K14 (human)): 118%
residual activity (MAP3K9 (human)): 95%
residual activity (MAP3K11 (human)): 96.4%
residual activity (PRKD3 (human)): 84.1%
residual activity (IKBKE (human)): 98%
residual activity (EPHA2 (human)): 94.8%
residual activity (AURKB (human)): 87.7%
residual activity (STK16 (human)): 111%
residual activity (AKT2 (human)): 96.8%
residual activity (CDK6 CCND1 (human)): 100%
residual activity (CAMK1G (human)): 99.3%
residual activity (CAMK1 (human)): 106%
residual activity (SRMS (human)): 102%
residual activity (CAMK2D (human)): 103%

CSc1nc(-c2ccc(F)cc2)c(-c2ccnc(NC(C)c3ccccc3)c2)[nH]1 (stereo unspecified)
residual activity (CDK9 CCNK (human)): 91.1%
residual activity (PAK7 (human)): 85.3%
residual activity (ERBB4 (human)): 98.4%
residual activity (MAPK10 (human)): 125%
residual activity (PDGFRA (human)): 102%
residual activity (KIT (human)): 92.4%
residual activity (SYK (human)): 96.8%
residual activity (PDPK1 (human)): 91.3%
residual activity (ROS1 (human)): 99.1%
residual activity (DYRK1B (human)): 84.6%
residual activity (CDK1 CCNB1 (human)): 106%
residual activity (WEE1 (human)): 76.1%
residual activity (RAF1 (human)): 88.9%
residual activity (STK10 (human)): 86.8%
residual activity (CSK (human)): 82.4%
residual activity (CAMK2B (human)): 89.2%
residual activity (AURKC (human)): 100%
residual activity (CSNK2A1 (human)): 100%
residual activity (BRSK2 (human)): 94.8%
residual activity (TEK (human)): 90.5%
residual activity (ZAP70 (human)): 102%
residual activity (PRKCZ (human)): 111%
residual activity (MAP3K2 (human)): 101%
residual activity (PRKCB1 (human)): 92.2%
residual activity (STK4 (human)): 89.8%
residual activity (MAP3K7 TAB1 (human)): 90.5%
residual activity (PRKG2 (human)): 102%
residual activity (MAP3K3 (human)): 80%
residual activity (MAP3K14 (human)): 127%
residual activity (MAP3K9 (human)): 101%
residual activity (MAP3K11 (human)): 101%
residual activity (PRKD3 (human)): 82%
residual activity (IKBKE (human)): 84%
residual activity (EPHA2 (human)): 98.8%
residual activity (AURKB (human)): 98.4%
residual activity (STK16 (human)): 95.1%
residual activity (AKT2 (human)): 96.8%
residual activity (CDK6 CCND1 (human)): 90.9%
residual activity (CAMK1G (human)): 98.3%
residual activity (CAMK1 (human)): 96.2%
residual activity (SRMS (human)): 104%
residual activity (CAMK2D (human)): 99.3%

CC(C)[C@H](CO)Nc1nc(Nc2cccc(Cl)c2)c2ncn(C(C)C)c2n1
residual activity (CDK9 CCNK (human)): 63.6%
residual activity (PAK7 (human)): 76.8%
residual activity (ERBB4 (human)): 78.4%
residual activity (MAPK10 (human)): 96.7%
residual activity (PDGFRA (human)): 96.9%
residual activity (KIT (human)): 91%
residual activity (SYK (human)): 88.9%
residual activity (PDPK1 (human)): 91.6%
residual activity (ROS1 (human)): 88.1%
residual activity (DYRK1B (human)): 49.9%
residual activity (CDK1 CCNB1 (human)): 34.9%
residual activity (WEE1 (human)): 82.6%
residual activity (RAF1 (human)): 98.9%
residual activity (STK10 (human)): 81.8%
residual activity (CSK (human)): 98.1%
residual activity (CAMK2B (human)): 94.3%
residual activity (AURKC (human)): 93.2%
residual activity (CSNK2A1 (human)): 101%
residual activity (BRSK2 (human)): 97.8%
residual activity (TEK (human)): 93.8%
residual activity (ZAP70 (human)): 99.7%
residual activity (PRKCZ (human)): 102%
residual activity (MAP3K2 (human)): 97.8%
residual activity (PRKCB1 (human)): 102%
residual activity (STK4 (human)): 87.7%
residual activity (MAP3K7 TAB1 (human)): 71.1%
residual activity (PRKG2 (human)): 89.3%
residual activity (MAP3K3 (human)): 102%
residual activity (MAP3K14 (human)): 112%
residual activity (MAP3K9 (human)): 37.8%
residual activity (MAP3K11 (human)): 40.2%
residual activity (PRKD3 (human)): 95.5%
residual activity (IKBKE (human)): 99.2%
residual activity (EPHA2 (human)): 89.5%
residual activity (AURKB (human)): 97%
residual activity (STK16 (human)): 102%
residual activity (AKT2 (human)): 90%
residual activity (CDK6 CCND1 (human)): 67.5%
residual activity (CAMK1G (human)): 94.9%
residual activity (CAMK1 (human)): 110%
residual activity (SRMS (human)): 104%
residual activity (CAMK2D (human)): 102%
